Strand notation (5' to 3'): a small letter for the sugar, then the base; units joined by * are phosphorothioate-linked, units joined directly phosphodiester-linked; [ ] holds rarer units or linkages, { } end groups; capitals alone tell only the bases. d = 2'-deoxy (DNA); m = 2'-O-methyl
How the values were obtained:
[1] = molecular target: LINC-PINT; assay: HEK293-TLR7, 100 nM ASO, then resiquimod
[2] = molecular target: LINC-PINT; assay: HEK293-TLR8, 100 nM ASO, then resiquimod
[3] = molecular target: EGFR; assay: HEK293-TLR7, 100 nM ASO, then resiquimod
[4] = molecular target: EGFR; assay: HEK293-TLR8, 100 nM ASO, then resiquimod

Substance | TLR7 signal (NF-kB luciferase) (% of resiquimod alone) [1] | TLR8 potentiation (NF-kB luciferase) (fold of resiquimod alone) [2] | TLR7 signal (NF-kB luciferase) (% of resiquimod alone) [3] | TLR8 potentiation (NF-kB luciferase) (fold of resiquimod alone) [4]
mA*mA*mA*mA*mA*dG*dT*dG*dG*dG*dA*dA*dA*dT*dA*mA*mA*mG*mG*mU | 28.8 | 1.34 |  | 
mA*mA*mA*mA*mG*dT*dG*dG*dG*dA*dA*dA*dT*dA*dA*mA*mG*mG*mU*mU | 30.9 | 1.48 |  | 
mA*mA*mA*mG*mU*dC*dA*dA*dA*dA*dA*dG*dA*dA*dA*mA*mA*mC*mU*mG | 45.6 | 1.62 |  | 
mA*mA*mA*mU*mG*dT*dC*dC*dT*dG*dG*dC*dC*dC*dT*mC*mA*mC*mU*mG | 46.5 | 1.45 |  | 
mA*mC*mC*mC*mU*dT*dC*dT*dC*dT*dC*dT*dG*dG*dT*mC*mC*mC*mA*mU | 43.4 | 2.55 |  | 
mA*mG*mC*mC*mG*dA*dA*dC*dA*dG*dA*dA*dG*dG*dA*mG*mC*mG*mU*mC | 27.7 | 2.54 |  | 
mA*mG*mU*mU*mU*dA*dT*dA*dG*dA*dT*dT*dT*dC*dA*mA*mG*mU*mA*mG | 37.6 | 3.06 |  | 
mA*mU*mG*mA*mC*dA*dT*dT*dT*dC*dG*dT*dG*dG*dC*mU*mC*mC*mU*mA | 32.5 | 0.88 |  | 
mC*mA*mA*mG*mC*dC*dC*dC*dA*dG*dC*dG*dT*dT*dC*mC*mU*mC*mC*mG | 45.2 | 2.74 |  | 
mC*mA*mC*mC*mC*dT*dT*dC*dT*dC*dT*dC*dT*dG*dG*mU*mC*mC*mC*mA | 73.3 | 1.85 |  | 
mC*mA*mC*mU*mG*dG*dG*dT*dG*dT*dA*dA*dG*dA*dG*mG*mC*mU*mC*mC |  |  | 87.3 | 2.44
mC*mA*mC*mU*mG*dT*dA*dT*dT*dT*dT*dA*dT*dT*dA*mC*mA*mG*mA*mA | 58.1 | 2.67 |  | 
mC*mA*mG*mG*mU*dG*dT*dC*dC*dT*dT*dG*dC*dA*dC*mG*mU*mG*mG*mC |  |  | 55.4 | 1.95
mC*mA*mU*mC*mC*dC*dT*dT*dC*dT*dG*dC*dT*dG*dC*mC*mA*mA*mG*mC | 54.3 | 2.95 |  | 
mC*mC*mA*mU*mC*dC*dC*dT*dT*dC*dT*dG*dC*dT*dG*mC*mC*mA*mA*mG | 52.6 | 2.38 |  | 
mC*mC*mC*mU*mA*dA*dT*dG*dC*dT*dT*dT*dC*dC*dT*mC*mU*mC*mC*mA | 58.4 | 2.7 |  | 
mC*mC*mC*mU*mU*dC*dT*dC*dT*dC*dT*dG*dG*dT*dC*mC*mC*mA*mU*mC | 49.6 | 2.6 |  | 
mC*mC*mU*mA*mU*dT*dA*dA*dA*dA*dA*dA*dA*dT*dT*mU*mA*mU*mA*mC | 109 | 2.19 |  | 
mC*mC*mU*mU*mC*dT*dC*dT*dC*dT*dG*dG*dT*dC*dC*mC*mA*mU*mC*mC | 60.9 | 3.01 |  | 
mC*mC*mU*mU*mC*dT*dG*dC*dT*dG*dC*dC*dA*dA*dG*mC*mC*mC*mC*mA | 85.6 | 1.45 |  | 
mC*mG*mG*mC*mA*dT*dC*dC*dA*dC*dC*dA*dC*dG*dT*mC*mG*mU*mC*mC |  |  | 56.7 | 1.33
mC*mU*mC*mU*mC*dT*dG*dG*dT*dC*dC*dC*dA*dT*dC*mC*mC*mU*mU*mC | 85 | 2.73 |  | 
mC*mU*mG*mU*mG*dA*dT*dC*dT*dT*dG*dA*dC*dA*dT*mG*mC*mU*mG*mC |  |  | 53.3 | 3.44
mC*mU*mU*mG*mC*dA*dC*dG*dT*dG*dG*dC*dT*dT*dC*mG*mU*mC*mU*mC |  |  | 28.1 | 3.06
mC*mU*mU*mU*mU*dG*dA*dA*dG*dT*dG*dA*dA*dG*dT*mA*mA*mA*mA*mG |  |  | 79.8 | 1.98
mC*mU*mU*mU*mU*dG*dG*dG*dA*dA*dC*dG*dG*dA*dC*mU*mG*mG*mU*mU |  |  | 53.2 | 1.91
mG*mA*mA*mG*mU*dG*dA*dA*dG*dT*dA*dA*dA*dA*dG*mG*mA*mG*mA*mA |  |  | 35.6 | 0.57
mG*mC*mA*mA*mG*dG*dC*dC*dC*dT*dT*dC*dG*dC*dA*mC*mU*mU*mC*mU |  |  | 33 | 2.55

Substance | TLR7 signal (NF-kB luciferase) (% of resiquimod alone) [1] | TLR8 potentiation (NF-kB luciferase) (fold of resiquimod alone) [2] | TLR7 signal (NF-kB luciferase) (% of resiquimod alone) [3] | TLR8 potentiation (NF-kB luciferase) (fold of resiquimod alone) [4]
mG*mG*mA*mG*mA*dT*dT*dT*dC*dA*dG*dA*dG*dC*dA*mG*mC*mU*mU*mC |  |  | 36.2 | 1.25
mG*mG*mC*mA*mU*dC*dC*dA*dC*dC*dA*dC*dG*dT*dC*mG*mU*mC*mC*mA |  |  | 34.9 | 0.85
mG*mG*mG*mA*mC*dA*dC*dT*dT*dC*dT*dT*dC*dA*dC*mG*mC*mA*mG*mG |  |  | 52.1 | 1.24
mG*mG*mG*mU*mA*dT*dC*dG*dA*dA*dA*dG*dA*dG*dT*mC*mU*mG*mG*mA |  |  | 27.1 | 0.91
mG*mG*mU*mG*mU*dC*dC*dT*dT*dG*dC*dA*dC*dG*dT*mG*mG*mC*mU*mU |  |  | 72.2 | 0.88
mG*mU*mA*mA*mA*dA*dA*dG*dC*dT*dT*dT*dT*dG*dA*mA*mG*mU*mG*mA |  |  | 29.1 | 1.62
mG*mU*mA*mA*mA*dA*dG*dG*dA*dG*dA*dA*dA*dA*dC*mU*mA*mU*mC*mU |  |  | 31.7 | 1.14
mG*mU*mA*mC*mU*dC*dG*dT*dC*dG*dG*dC*dA*dT*dC*mC*mA*mC*mC*mA |  |  | 31.5 | 1.25
mG*mU*mA*mG*mA*dG*dA*dA*dA*dT*dT*dA*dT*dT*dT*mU*mA*mG*mG*mA |  |  | 34.5 | 2.47
mG*mU*mC*mC*mU*dT*dG*dC*dA*dC*dG*dT*dG*dG*dC*mU*mU*mC*mG*mU |  |  | 31.5 | 0.8
mG*mU*mG*mU*mC*dC*dT*dT*dG*dC*dA*dC*dG*dT*dG*mG*mC*mU*mU*mC |  |  | 28.3 | 0.8
mG*mU*mU*mA*mC*dT*dC*dG*dT*dG*dC*dC*dT*dT*dG*mG*mC*mA*mA*mA |  |  | 32.3 | 1.17
mU*mA*mA*mA*mA*dG*dG*dA*dG*dA*dA*dA*dA*dC*dT*mA*mU*mC*mU*mU |  |  | 58.2 | 1.69
mU*mA*mC*mU*mC*dG*dT*dC*dG*dG*dC*dA*dT*dC*dC*mA*mC*mC*mA*mC |  |  | 70.2 | 1.08
mU*mA*mG*mG*mC*dA*dC*dT*dT*dT*dG*dC*dC*dT*dC*mC*mU*mU*mC*mU |  |  | 58.9 | 2.29
mU*mC*mG*mG*mC*dA*dT*dC*dC*dA*dC*dC*dA*dC*dG*mU*mC*mG*mU*mC |  |  | 53.7 | 1.39
mU*mG*mA*mA*mG*dT*dA*dA*dA*dA*dA*dT*dC*dA*dA*mU*mA*mG*mC*mG |  |  | 30 | 1.96
mU*mG*mG*mG*mC*dT*dG*dG*dA*dA*dT*dC*dC*dG*dA*mG*mU*mU*mA*mU |  |  | 36.1 | 1.92
mU*mG*mU*mA*mG*dA*dG*dA*dA*dA*dT*dT*dA*dT*dT*mU*mU*mA*mG*mG |  |  | 61.4 | 2.99
mU*mG*mU*mC*mC*dT*dT*dG*dC*dA*dC*dG*dT*dG*dG*mC*mU*mU*mC*mG |  |  | 62.7 | 2.61
mU*mU*mA*mC*mU*dT*dT*dA*dA*dA*dA*dG*dC*dA*dA*mA*mA*mG*mG*mA |  |  | 35 | 2.27
mU*mU*mG*mA*mA*dG*dT*dG*dA*dA*dG*dT*dA*dA*dA*mA*mG*mG*mA*mG |  |  | 31.8 | 0.96
mU*mU*mU*mA*mC*dG*dG*dT*dT*dT*dT*dC*dA*dG*dA*mA*mU*mA*mU*mC |  |  | 40.6 | 3.63
mU*mU*mU*mG*mA*dA*dG*dT*dG*dA*dA*dG*dT*dA*dA*mA*mA*mG*mG*mA |  |  | 35.2 | 2.58
mU*mU*mU*mU*mG*dA*dA*dG*dT*dG*dA*dA*dG*dT*dA*mA*mA*mA*mG*mG |  |  | 51.6 | 3.08
mU*mU*mU*mU*mG*dA*dA*dG*dT*dG*dT*dT*dT*dA*dA*mU*mA*mU*mU*mC |  |  | 78.9 | 4.09
mU*mU*mU*mU*mU*dG*dA*dA*dG*dT*dG*dT*dT*dT*dA*mA*mU*mA*mU*mU |  |  | 59 | 3.43
